Reference: patent US6121252A, “Phosphinic acid derivatives” (priority 1998, dated 2000)

Legend:
cortical cell cultures = assay: In vitro ischemia assay (KCN/2-DG) in cortical cell cultures; type: cell-based, rat
dopaminergic neurons = assay: Parkinson's Disease model: MPTP lesioned mice; type: in vivo, CD1 mice; conditions: 10 mg/kg, p<0.001
Experimental: To examine the effect of NAALADase inhibitors on Parkinson's Disease in vivo, MPTP lesioned mice were treated with 2-(phosphonomethyl)pentanedioicacid or a vehicle.
MPTP lesioning of dopaminergic neurons in mice was used as an animal model of Parkinson's Disease, as described by Steiner, Proc. Natl. Acad. Sci., Vol. 94, pp. 2019-2024 (March 1997). In brief, four week old male CD1 white mice were dosed IP with 30 mg/kg of MPTP for 5 days. […] At 18 days following MPTP treatment, the mice were sacrificed and their brains were removed and sectioned. Immunostaining was performed on saggital and coronal brain sections using anti-tyrosine hydroxylase (TH) antibodies to quantitate survival and recovery of dopaminergic neurons.

LNCaP tumors = assay: In vivo LNCaP tumor model, intratumoral Compound 3; parameters: species or system ncr nude male mice
Experimental: Ncr nude male mice, age 5 to 6 weeks, were injected in the right flank with 10^7 LNCaP cells in Matrigel™ (0.1 ml total injection volume). When the tumors reached a predetermined size (50 to 60 mm^3), mice were randomly placed into treatment groups of 6 to 8 mice each. […] Controls received 50 μl of 50 mM HEPES intratumorally daily. Tumors were measured twice a week.
Response to treatment was monitored in two ways. First, mean tumor volume for each group was presented as tumor:control ratio (% T/C) and these values were compared at one point in time. Second, tumor volume versus time was monitored.

Sprague-Dawley rats = assay: Brain injury following MCAO in Sprague-Dawley rats; type: in vivo, rat; conditions: for mean total brain infarct volume: then 20 mg/kg/hr IV 4 hours
SHRSP rats = assay: Cortical injury following MCAO in SHRSP rats; type: in vivo, rat; conditions: for Cortical Injury Volume / Cortical Injury Volume (% injury): ± S.E.M., n = 10
Experimental: Rectal temperature is maintained at 37.0±0.50° C. throughout the surgical procedure using a heating lamp.

sciatic nerve = assay: Myelin formation following sciatic nerve cryolesion; type: in vivo, mouse
Experimental: Cryolesion of the mouse sciatic nerve was performed according to Koenig et al. , Science, Vol. 268, pp. 1500-1503 (June 1995). In brief, each mouse was anesthetized and its sciatic nerve was exposed in the upper thigh and cryolesioned using a copper cryode (diameter=0.5 mm) that was dipped in liquid nitrogen and repeatedly applied to the upper part of the nerve. The extent of the lesion was approximately 1 mm.
Both right and left sciatic nerves of each mouse were lesioned; right-side nerves were treated with silicone implant strips containing vehicle alone while left-side nerves were treated with silicone implants containing 2-(phosphonomethyl)pentanedioic acid. Fifteen days after surgery, the mice were sacrificed and their sciatic nerve segments were collected and processed for light microscopy and TEM analysis. Randomly chosen fields 2-3 mm distal to the lesion were qualitatively analyzed by light microscopy using 1-micrometer-thick toluidine blue stained cross sections and photographic images were captured.

[1] = Rattus norvegicus, read-out: % Toxicity
[2] = 10 mg/kg then 2 mg/kg/hr for 1 hour
[3] = 100 mg/kg then 20 mg/kg/hr for one hour

**Q.** With `O=C(O)CCC(CP(=O)(O)O)C(=O)O` (stereo not drawn) [Compound 3, 2-(phosphonomethyl)pentanedioic acid] as the compound, how does the “ischemic toxicity (in words)” value (cortical cell cultures; 100 pM to 1 μM) read?
**A.** toxicity decreased as the concentration of 2-(phosphonomethyl)pentanedioic acid increased

**Q.** And the activity at 0.0001 µM (cortical cell cultures; [1])?
**A.** 66.6 ± 4.38%

**Q.** What about the activity at 0.001 µM (cortical cell cultures; [1]) of the same compound?
**A.** 42.3 ± 9.34%

**Q.** What about the activity at 0.01 µM (cortical cell cultures; [1]) of the same compound?
**A.** 33.1 ± 9.62%

**Q.** And the activity at 0.1 µM (cortical cell cultures; [1])?
**A.** 30.2 ± 9.43%

**Q.** And the activity at 1 µM (cortical cell cultures; [1])?
**A.** 8.56 ± 8.22%

**Q.** What about the “recovery of TH-stained dopaminergic neurons (in words)” value (dopaminergic neurons) of the same compound?
**A.** significant recovery of TH-stained dopaminergic neurons

**Q.** And the “Optimal % T/C” value (LNCaP tumors; 0.025 μg/day intratumoral)?
**A.** 42 % T/C

**Q.** What about the Regressions (LNCaP tumors; 0.025 μg/day intratumoral) of the same compound?
**A.** 1/7

**Q.** What about the “Tumor volume after 42 days of treatment” value (LNCaP tumors; 0.025 μg/day, control 807.3±197.3) of the same compound?
**A.** 465.7±176 mm^3

**Q.** What about the “Optimal % T/C” value (LNCaP tumors; 0.25 μg/day intratumoral) of the same compound?
**A.** 51 % T/C

**Q.** What about the Regressions (LNCaP tumors; 0.25 μg/day intratumoral) of the same compound?
**A.** 1/7

**Q.** What about the “Optimal % T/C” value (LNCaP tumors; 2.5 μg/day intratumoral) of the same compound?
**A.** 45 % T/C

**Q.** And the Regressions (LNCaP tumors; 2.5 μg/day intratumoral)?
**A.** 0/7

**Q.** What about the “Optimal % T/C” value (LNCaP tumors; 25.0 μg/day intratumoral) of the same compound?
**A.** 76 % T/C

**Q.** And the Regressions (LNCaP tumors; 25.0 μg/day intratumoral)?
**A.** 0/7

**Q.** And the “tumor growth (in words)” value (LNCaP tumors; 0.025, 0.25 and 2.5 μg/day intratumoral)?
**A.** slowed tumor growth substantially

**Q.** And the “mean total brain infarct volume” value (Sprague-Dawley rats; 100 mg/kg IP 20 minute pre-treatment, p=0.003 vs. vehicle (293±26))?
**A.** 122±26 mm^3

**Q.** What about the “mean total brain infarct volume” value (Sprague-Dawley rats; 100 mg/kg IP 30 minute post-treatment, p=0.2 vs. vehicle (293±26)) of the same compound?
**A.** 208±40 mm^3

**Q.** What about the “mean total brain infarct volume” value (Sprague-Dawley rats; 100 mg/kg IP 60 minute post-treatment, p=0.015 vs. vehicle (293±26)) of the same compound?
**A.** 125±57 mm^3

**Q.** What about the “mean total brain infarct volume” value (Sprague-Dawley rats; 100 mg/kg IP 120 minute post-treatment, p=0.005 vs. vehicle (293±26)) of the same compound?
**A.** 133±35 mm^3

**Q.** And the “neuroprotection in rat MCAO model (in words)” value (Sprague-Dawley rats; up to 2 hours post-occlusion)?
**A.** neuroprotective in rat MCAO model of stroke when administered up to 2 hours post-occlusion

**Q.** And the “Cortical Protection” value (SHRSP rats; [2])?
**A.** 27 % protection

**Q.** And the “Cortical Injury Volume” value (SHRSP rats; [2])?
**A.** 135.00 ± 32.18 mm^3

**Q.** And the “Cortical Injury Volume (% injury)” value (SHRSP rats; [2])?
**A.** 29.14 ± 7.68 % injury

**Q.** What about the “Cortical Protection” value (SHRSP rats; [3]) of the same compound?
**A.** 65 % protection

**Q.** And the “Cortical Injury Volume” value (SHRSP rats; [3])?
**A.** 65.23 ± 32.18 mm^3

**Q.** And the “Cortical Injury Volume (% injury)” value (SHRSP rats; [3])?
**A.** 13.98 ± 6.64 % injury

**Q.** What about the “# of myelinated lamellae” value (sciatic nerve; ave. + SEM, vehicle 13.77 ± 0.09, p < 0.005) of the same compound?
**A.** 16.53 ± 0.65

**Q.** What about the “% increase of myelinated lamellae over vehicle” value (sciatic nerve; p < 0.005) of the same compound?
**A.** 20%

**Q.** What about the “ratio of # of myelinated axons (drug/vehicle)” value (sciatic nerve; silicone implant, approx. 2.5 μg/day, 15 days) of the same compound?
**A.** 1.5

**Q.** And the “increase in number of myelinated axons” value (sciatic nerve; vs vehicle, 3 mm distal to cryolesion)?
**A.** 1.5 fold

**Q.** What about the “increase in myelin thickness” value (sciatic nerve; vs vehicle, 3 mm distal to cryolesion, p<0.005) of the same compound?
**A.** 20%
